Test results: US8802240B2, “Uses of formulations of thyroid hormone analogs and nanoparticulate forms thereof to increase chemosensitivity and radiosensitivity in tumor or cancer cells” (Nanopharmaceuticals LLC, priority 2011, dated 2014)

How the values were obtained:
Solubility = type: physicochemical; conditions: required a high volume of cosolvent (DMSO)
[1] = test system: DNA double-strand breaks in U87MG cells; assay: U87MG neutral comet assay of DNA double-strand breaks; type: cell-based, human
Method: For the comet assay studies of induction and repair of DSBs in U87MG cells, cells were treated as described above. However, for the single dose induction of DSBs doses ranged from 0-30 Gy, and for the study of the repair of DSBs in irradiated cells, a large single dose of 60 Gy requiring approximately 1 h of irradiation time was given. Appropriate temperature controls (on ice) were run to insure that no decrement in survival was produced by the 1 h exposure to 0° C.
U87MG cells on plastic slides were exposed to 2 nM Tetrac for 1 h at 37° C. These slides were then placed on crushed ice and irradiated with doses from 0 to 75 Gy. Slides were immersed in lysing solution at 50° C. for 2 hours. Slides were washed, and placed into a gel electrophoresis unit. Electrophoresis was carried out at 0.66 V/cm for 25 min. Cells were stained with ethidium bromide and image analysis was done using an epifluoresence microscope at a total magnification of 400×. We also used an excitation filter of 515-535 nm and a barrier filter at 590 nm. The mean tail moment (TM) which is expressed in arbitrary units was then calculated. TM was calculated using a CCD camera and software. Approximately 350 comets were analyzed per condition.

[2] = test system: SKN-SH, SaOS2 and MCF7 cells, drug-sensitive and -resistant; assay: MTT cell viability of drug-sensitive and drug-resistant cancer cells; type: cell-based; conditions: 4 days
Method: Drug-sensitive and -resistant SKN-SH (FIGS. 13C-D), SaOS2 (FIGS. 13A-B), and MCF7 (FIGS. 13E-F) cells were subjected to treatment with increasing concentrations of Tetrac or Doxirubicin over a period of 4 days. Cell viability was then measured by MTT assay. The data represent the average of 4 determinations±SE.
Doxorubicin resistant SKN-SH/R, MCF7/R and SaOS2/R cells were subjected to treatment with Tetrac either alone or in combination with each of doxorubicin (Dox), etoposide (Etop), cisplatin (Cisp), or trichostatin A (TSA) at the indicated concentrations, After 4 days in cell viability was determined by the MTT assay and the data represented as average of 3 determinations±SE.

[3] = test system: GL261 murine brain tumor cells; assay: GL261 growth curve, colony forming efficiency and cell size; type: cell-based
Method: 1×10^5 cells per 25 cm^2 flask at time zero (density 40 cells/mm^2). Three flasks were utilized at each time period. The medium in the flasks was not changed over the duration of the growth curve (unfed cultures). Data were taken daily from day zero to day 11.5 post-seeding and cell numbers, age distributions, and apoptotic percentages were determined. After growth curve shapes (without and with 2 μM Tetrac) were determined, irradiation times at 70 and 270 hour post-seeding were chosen.
To obtain exponential and plateau phase cell numbers, we trypsinized ([…] trypsin-EDTA) cells for 5 min at 37° C.
For determination of CCDTs, the cell numbers per flask were determined on a daily basis. A four-day interval in the exponential region of growth to obtain the CCDTs, yielding a total of 12 estimations for analysis was utilized. A regression analysis was performed using the (log) of the cell number versus the linear time in days (SigmaPlot, V. 10, Systat Software, Inc., Point Richmond, Calif.). The log slope value and its standard error (SE) were determined, and the SE was converted to the 95% confidence limits using a two-tailed t-table at N−1 degrees of freedom where N is the number of samples. (See Goldstein, A. In: Biostatistics, New York, The MacMillan Co., 1964, p. 140-146).

MCF7 and MCF7/R cells = assay: Intracellular accumulation of radiolabeled doxorubicin; type: cell-based; conditions: 24 hours, presence vs absence of Tetrac
Method: FIG. 15A is a Western blofshowing the expression of P-gp, GST and SOD in wild type (W) drug sensitive and resistant (R) MCF7 cells. […] The cells were treated for 24 h with each drug alone or the combination of both, after that, expression of drug resistance molecules was determined by Western blot using specific antibodies. […] The cells were incubated for 24 hours with doxorubicin in the absence or the presence of Tetrac, after that they were washed and then solubilized. Radioactivity associated with the cell lysates was counted and compared between the two cell lines either treated or not with Tetrac. The data represent an average of 3 determinations±SE.

GL261 cells = assay: GL261 cell multiplicity after Tetrac exposure; type: cell-based, murine; conditions: one hour exposure to Tetrac
Method: Cell multiplicity (CM) was determined from Giemsa stained slides by counting the number of cells per microcolony under 20× magnification. At least 400 microcolonies were counted.
The length of time that Tetrac biologically affected GL261 cells was also determined. To do this, the multiplicity relationship defined above was utilized. Tetrac was added to cells one hour prior to the determination of the multiplicity. After the exposure of exponentially growing GL261 cells to Tetrac, the Tetrac containing medium was removed from GL261 cells, which contained an unknown residual and fresh medium (without Tetrac) was added. As a function of time (i.e., 0, 1, 2, 3, 4, 6, 8, and 10 hours, and 1-6 days), the cells, containing an unknown residual amount of remaining Tetrac, were then processed for determination of the multiplicity index (i.e. the number of cells per microcolony).

TTR (Transthyretin) = TTR (Transthyretin) (Homo sapiens, UniProt P02766); assay: TTR displacement assay; type: binding
Excerpt: Determination of the optimal or preferred density of the thyroid hormone or thyroid hormone analog bound to the nanoparticles is within the routine skill level in the art. For example, those skilled in the art will recognize that TTR (Transthyretin) can be used as the basis for a displacement assay in order to quantify the amount of Tetrac bound to nanoparticles. Specifically, such assays involve in vitro displacement of radiolabeled T4 from TTR by Tetrac or Tetrac nanoparticles (Tetrac NP). […] Amounts of nanoparticulate Tetrac in unknown suspensions (i.e., biologic fluids) are then calculated from the displacement of radiolabeled T4. […] The tubes are mixed and incubated for 16 hours at 4° C. The bound and free hormones are separated by adding dextran-coated charcoal (DCC) to each tube, which is then centrifuged at 12,000×g for 2 min. at 4° C. Bound [I^125] T4 in the supernatant is measured by scintillation counting.

human MTC cells = assay: RNA microarray of h-MTC cells; type: cell-based
Method: Technical aspects of microarray studies, stringent quality control of microarray studies and statistic analysis of gene expression were as described previously. […] In brief, the array hybridization and processing, data retrieval and the analysis were carried out with standard sets of Affymetrix (Santa Clara, Calif.) equipment, software and protocols in an Affymetrix microarray core facility. RNA was extracted from cell cultures of two independent biological replicates of each experimental condition and analyzed for sample purity and integrity, using BioAnalyzer instrumentation (Agilent, Santa Clara, Calif.). Expression analysis of 54,675 transcripts was conducted for each sample, using Affymetrix HG-U133A Plus 2.0 arrays. Data retrieval and analysis was completed by MAS5.0 software. Concordant changes of gene expression for each experimental condition were determined at the statistical threshold P value, <0.01 (two-tailed t test).

Q: Which results are given for `O=C(O)Cc1cc(I)c(Oc2cc(I)c(O)c(I)c2)c(I)c1` [Tetrac, tetraiodothyroacetic acid]?
A: solubility in water (in words) (Solubility): difficult to solubilize in water; effect on the slope of the mean tail moment in graded single dose studies (in words) [1]: did not affect the slope of the mean tail moment; sensitization factor from mean tail moment at 0 Gy [1]: 2.2; inhibition of repair of DNA double strand breaks / decrease of repair rate ([1]; [(1.00−slope Tetrac/slope control)×100]): 72.5%; slope of time-dependent DSB repair ([1]; after 30 Gy of x-rays, control −4.36): −1.20; anti-proliferative activity against drug-sensitive vs drug-resistant cells (in words) ([2]; MTT): equivalent anti-proliferative activity; cellular responses to doxorubicin, etoposide, cisplatin and TSA when combined with Tetrac (in words) ([2]; doxorubicin resistant SKN-SH/R, MCF7/R and SaOS2/R cells): significantly enhanced; CFE (%) ([3]; exponential cells (+Tetrac), control 30.6, with feeder cells): 24.2%; size of Tetrac-treated cells relative to control (volumetric data) ([3]; exponential phase): 1.4 times; size of Tetrac-treated cells relative to control (volumetric data) ([3]; plateau phase): 1.9 times; intracellular accumulation of radiolabeled doxorubicin (in words) (MCF7 and MCF7/R cells): increased significantly; time for a 50% return of the cell multiplicity factor towards control (GL261 cells): approximately 2.5 days; time post Tetrac treatment at which the decrease in the CM factor was at 50% (GL261 cells): 60 h; affinity of TTR relative to that for T4 (TTR (Transthyretin)): 100 times; expression of VEGFA (in words) (human MTC cells): significantly decreased; expression of genes associated with induction of apoptosis: CASP2, DFFA, FAF1, CASP8AP2 (in words) (human MTC cells): caused expression; expression of thrombospondin (THBS1) gene (in words) (human MTC cells): increase
